The conditions of series [1]: cited from earlier work.
Series [2] can be described thus: Randomized, crossover, fed/fasted single-dose pharmacokinetic study of oral sustained release tablets of compound (7) in healthy adult subjects. Particulars: for AUC of compound (7) in blood as percent of the corresponding AUC of gabapentin in blood / maximum intact prodrug concentration as percent of the corresponding peak gabapentin concentration: oral tablets. On the procedure: A randomized, crossover, fed/fasted single-dose study of the safety, tolerability, and pharmacokinetics of oral administration of 1-{[α-isobutanoyloxyethoxy)carbonyl]aminomethyl}-1-cyclohexane acetic acid (7) in healthy adult subjects was conducted. The oral sustained release dosage form of Example 4 was used in this study. The study was designed to evaluate the performance of this formulation in humans in comparison with the commercial gabapentin capsule formulation (Neurontin®, Pfizer). Twelve healthy adult volunteers (7 males and 5 females) participated in the study. Mean body weight was 75.6 kg. All subjects received two different treatments in a random order with a one-week washout between treatments. The two treatments were: a single oral dose of Example 4 tablets (2×600 mg) after an overnight fast; and a single oral dose of Example 4 tablets (2×600 mg) after a high fat breakfast.
Blood and plasma samples were collected from all subjects prior to dosing, and at 0.5, 1, 1.5, 2, 3, 4, 6, 8, 12, 18, 24, and 36 hours after dosing. Urine samples were collected from all subjects prior to dosing, and complete urine output was obtained at the 0-4 h, 4-8 h, 8-12 h, 12-18 h, 18-24 h, and 24-36 h intervals after dosing. Blood samples were quenched immediately with methanol and stored frozen at […] Sample aliquots were prepared for analysis of gabapentin and compound (7) using sensitive and specific LC/MS/MS methods.

The nature of series [3]: Uptake of gabapentin following intracolonic administration of gabapentin or gabapentin prodrugs in rats. In kind it is in vivo. Particulars: rat, dose equivalent to 25 mg gabapentin per kg. On the procedure: Sustained release oral dosage forms, which release drug slowly over periods of 6-24 hours, generally release a significant proportion of the dose within the colon. […] This experiment was conducted to assess the suitability of gabapentin prodrugs for use in oral sustained release dosage forms.
Rats were obtained commercially and were pre-cannulated in the both the ascending colon and the jugular vein. Animals were conscious at the time of the experiment. All animals were fasted overnight and until 4 hours post-dosing. […]
were administered as a solution (in water or PEG 400) directly into the colon via the cannula at a dose equivalent to 25 mg of gabapentin per kg. […] Blood samples were analyzed as described below. […]
were used. […] The peaks were integrated using Analyst 1.1 quantitation software.

The nature of series [4]: Uptake of R-baclofen following oral administration of R-baclofen prodrugs to cynomolgus monkeys. Particulars: cynomolgus monkey, in vivo. On the procedure: (5 mg baclofen-eq/kg) were administered by oral gavage to groups of four male cynomolgus monkeys as either an aqueous solution or suspension in 0.5% methylcellulose/0.1% Tween-80 respectively. […] The oral bioavailability of both prodrugs: • (sodium 4-{[(1S)-isobutanoyloxyisobutoxy]carbonylamino}-(3R)-(4-chlorophenyl)-butanoate; and • 4-{[(1S)-isobutanoyloxyisobutoxy]carbonylamino}-(3R)-(4-chlorophenyl)-butanoic acid;

The conditions of series [5]: oral; 2 mg t.i.d. R-baclofen equivalent to 10 mg t.i.d. racemic baclofen; cited from earlier work.
The conditions of series [6]: oral baclofen; cited from earlier work.

For the molecule `NCC1(CC(=O)O)CCCCC1` [gabapentin], in series [1], the “typical Tmax of immediate release gabapentin” value was 2 to 4 h.

With `CC(OC(=O)NCC1(CC(=O)O)CCCCC1)OC(=O)C(C)C` (stereo not drawn) [compound (7), 1-{[(α-isobutanoyloxyethoxy)carbonyl]aminomethyl}-1-cyclohexane acetic acid], the “maximum concentration of intact compound (7) in blood” value in series [2] (human, in vivo, po) came to 0.040 µg/mL. Moreover, in series [2] (fasted subjects), the “AUC of compound (7) in blood as percent of the corresponding AUC of gabapentin in blood” value is on record as 0.3% and the “maximum intact prodrug concentration as percent of the corresponding peak gabapentin concentration” value is “approximately 1.0%”. In addition, in series [2] (fed subjects), the “AUC of compound (7) in blood as percent of the corresponding AUC of gabapentin in blood” value is reported as “less than 0.1%” and the “maximum intact prodrug concentration as percent of the corresponding peak gabapentin concentration” value was “approximately 0.3%”. In series [3], the “area under the gabapentin plasma concentration vs. time curve (AUC) relative to colonic administration of gabapentin itself” value is “greater than 10 fold” and the “maximum plasma concentration of gabapentin (Cmax) relative to colonic administration of gabapentin itself” value is given as “greater than 10 fold”.

As for `CC(C)C(=O)O[C@@H](OC(=O)NC[C@H](CC(=O)[O-])c1ccc(Cl)cc1)C(C)C.[Na+]` [sodium 4-{[(1S)-isobutanoyloxyisobutoxy]carbonylamino}-(3R)-(4-chlorophenyl)-butanoate], in series [4], the “oral bioavailability as R-baclofen” value is “greater than 80%”.

On to `NC[C@H](CC(=O)O)c1ccc(Cl)cc1` [R-baclofen, R-(−)-baclofen], for which the “potency of orally administered R-baclofen relative to orally administered racemic baclofen” value in series [5] was “about 5 fold”.

`NCC(CC(=O)O)c1ccc(Cl)cc1` (racemic) [Baclofen, (±)-4-amino-3-(4-chlorophenyl)butanoic acid]: the elimination half-life in series [6] was 3 to 4 h.
